Measurements from US20030119748A1 (Idun Pharmaceuticals, Inc., priority 1996, published 2003).

Molecular target: T1, mICE (Mus musculus, UniProt P29452)
T1 sequence (P29452 119-402): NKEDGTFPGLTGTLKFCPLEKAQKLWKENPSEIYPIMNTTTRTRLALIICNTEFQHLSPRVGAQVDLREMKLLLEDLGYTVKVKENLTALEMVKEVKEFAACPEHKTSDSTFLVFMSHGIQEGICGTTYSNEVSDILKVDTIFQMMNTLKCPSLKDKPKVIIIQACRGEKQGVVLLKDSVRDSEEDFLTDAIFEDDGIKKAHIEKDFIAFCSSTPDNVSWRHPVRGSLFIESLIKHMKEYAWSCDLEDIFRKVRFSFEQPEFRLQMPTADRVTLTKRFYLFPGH
Assay: Dissociation constant Ki for irreversible inhibitors, continuous assay (Example 1B)
Type: biochemical
Details: compounds of Formula B and Formula C, procedure of Example 1B
Excerpt: B. Determination of the Dissociation Constant K1 and Irreversible Rate Constant k3 for Irreversible Inhibitors
For the irreversible inhibition of a ICE/ced-3 Family Protease enzyme with a competitive irreversible inhibitor; using the model represented by the following formulas: [drawing 4]
The product formation at time t may be expressed as: [drawing 5]
where E, I, EI, and E-I denote the active enzyme, inhibitor, non-covalent enzyme-inhibitor complex and covalent enzyme-inhibitor adduct, respectively. The K1 value is the overall dissociation constant of reversible binding steps, and k3 is the irreversible rate constant. The [S] and Ks values are the substrate concentration and the dissociation constant of the substrate bound to the enzyme, respectively. [E]^T is the total enzyme concentration.
The above equations were used to determine the K1 and k3 values of a given inhibitor bound to a ICE/ced-3 family protease. Thus, a continuous assay was run for sixty minutes at various concentrations of the inhibitor and the substrate. The assay was formulated essentially the same as described in Example 1A above, except that the reaction was initiated by adding the enzyme to the substrate-inhibitor mixture. The K1 and k3 values were obtained by simulating the product AMC formation as a function of time according to Equation 1. The reference compound for this assay was Cbz-ValAlaAsp-CH2F.

Compound `CC(C)[C@H](NC(=O)c1cc2ccccc2n1CC(=O)O)C(=O)NC(CC(=O)O)C(=O)CF` (some centres unmarked) [Example 58, N-[(1-(Carboxymethyl)Indole-2-Carbonyl)Valinyl]-3-Amino-4-Oxo-5-Fluoropentanoic Acid] has a Ki of under 1000 nM.
For `Cc1c(C(=O)NC(C(=O)NC(CC(=O)O)C(=O)COc2ccccc2C(N)=O)C(C)C)n(C)c2ccccc12` (centres unmarked) [Example 74, N-(1,3-Dimethyl-indole-2-carbonyl)-Valinyl-3-amino-5-(2-aminocarbonyl-1-phenyl)oxy-4-oxo-pentanoic Acid], the Ki was under 1000 nM.
